Tests used:
TK-10 control cells = test: Apoptosis analysis (Annexin V-FITC / PI); type: cell-based, human; conditions: TK-10, 48 hour, 1000 ng/mL
Description: (§1) Briefly, cells were pulsed at the indicated times with 30 μM of bromodeoxyuridine (BrdU, Sigma) for 30 min, harvested, fixed and permeabilized in methanol. Nascent DNA synthesis was detected by anti-bromodeoxyuridine-FITC (BD Biosciences, San Jose, Calif.) staining. Total DNA content was detected using propidium iodide (PI, Sigma). For apoptosis analysis, cells were treated as above and labeled with Annexin V-FITC followed by propidium iodide exclusion using the Annexin V-FITC Apoptosis Detection kit I (BD PharMingen, San Diego, Calif.) according to the manufacturer's protocols. Flow cytometry (as described in the previous Example) was used to assay both cell cycle and apoptosis studies.
(§2) To investigate this possibility, analysis of apoptosis using Annexin-V surface binding and loss of propidium iodide (PI) exclusion was performed.

SK-Mel-2 cells = test: Apoptosis analysis (Annexin V-FITC / PI); type: cell-based, human; conditions: SK-Mel-2, 48 hour, 1000 ng/mL
Description: as §1, §2

[1] = system: Lymphoma or leukemia cell lines; test: Clonogenic assay (methylcellulose) with 1.15.1-AE, lymphoma and leukemia panel; type: cell-based, human
Description: Lymphoma or leukemia cell lines were mixed with methylcellulose base media (R&D Systems, USA) and in various concentrations of unconjugated and Auristatin E-conjugated 1.15.1 antibody before plating onto 6-well tissue culture plates (Becton Dickinson, Franklin Lakes, N.J., USA). […] Plates were incubated at 37° C. and examined daily. On days 14-18, colonies on the plates were counted.

Melanoma cell lines = test: Clonogenic assay with 1.15.1-AE, melanoma panel; type: cell-based, human
Description: Melanoma cell lines were plated onto flat bottom 96-well tissue culture plates (Becton Dickinson, Franklin Lakes, N.J., USA). On day 2 or when cells reach ˜25% confluency, various concentrations of unconjugated and Auristatin E-conjugated 1.15.1 were added to cells. MAb 2.6.2-AE was also used as a conjugated isotype control in this study. On day 5, the cells were trypsinized, transferred to 6-well tissue culture plates and incubated at 37° C. Plates were examined daily. On days 8-10, all plates were Giemsa stained and colonies on the plates were counted.

CG56972-expressing cells = test: Internalization of cell surface bound antibodies (flow cytometry); type: cell-based, human; conditions: following incubation with CG56972-expressing cells
Description: Internalization of cell surface bound antibodies was assessed by a modified flow cytometry procedure. […] After washing cells, incubation was shifted to 37° C. for 1 hr to allow internalization of bound antibodies. Cells that remained on ice (total surface bound) or that were incubated at 37° C. […] Labeled cells were analyzed by flow cytometry as described above. The percentage of antibody internalized was determined using the GMRs and the following formula:
Percent internalized=Total surface bound (4° C.)−Total surface bound (37° C.)/Total surface bound (4° C.)×100

CG56972 = biological target: T1, CG56972 (Homo sapiens, UniProt Q14956); test: Flow cytometry of CR011 binding to cell surface CG56972/GPNMB (GMR)
T1 construct: endogenous in cells; host or cells: SK-MEL-2, XF-498, U-118-MG, SNB-78, SF-539, SF-268 and further human lines (ATCC / NCI)
T1 sequence (Q14956 23-572): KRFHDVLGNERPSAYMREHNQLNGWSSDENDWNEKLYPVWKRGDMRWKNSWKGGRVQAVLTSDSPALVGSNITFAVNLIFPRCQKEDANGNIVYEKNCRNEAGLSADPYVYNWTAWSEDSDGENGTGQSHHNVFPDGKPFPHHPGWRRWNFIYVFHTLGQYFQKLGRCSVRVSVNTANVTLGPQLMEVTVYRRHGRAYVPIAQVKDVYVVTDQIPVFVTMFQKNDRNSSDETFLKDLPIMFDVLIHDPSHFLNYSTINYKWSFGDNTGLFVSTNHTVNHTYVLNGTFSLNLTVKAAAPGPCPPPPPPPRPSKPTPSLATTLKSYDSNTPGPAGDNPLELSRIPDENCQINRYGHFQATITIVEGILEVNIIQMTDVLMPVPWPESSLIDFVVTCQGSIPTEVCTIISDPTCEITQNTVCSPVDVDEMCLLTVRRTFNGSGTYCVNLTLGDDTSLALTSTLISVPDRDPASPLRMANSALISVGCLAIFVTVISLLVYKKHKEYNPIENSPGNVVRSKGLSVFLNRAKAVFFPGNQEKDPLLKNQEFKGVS
Description: (§3) Quantitative analysis of GPNMB expression on the cell surface of cell lines was determined by flow cytometry. […] Cells were fixed in 1% paraformaldehyde/PBS and examined on a Becton Dickinson FACSCalibur flow cytometer. Data analysis was performed with Becton Dickinson Cell Quest software version 3.3 and the geometric mean fluorescence intensity ratio (GMR) was determined for each cell type.
as §3, with “CG56972” for “GPNMB”, “the” for “the cell”, “cytometry (FACS).” for “cytometry.”

CR011: fully human monoclonal antibody that specifically binds to GPNMB; VH SEQ ID NO: 20, VL SEQ ID NO: 29
% AnnV+/PI+ UR (TK-10 control cells): 0.34%
% AnnV+/PI− LR (TK-10 control cells): 0.55%
% AnnV−/PI+ UL (TK-10 control cells): 0.83%
% AnnV+/PI+ UR (SK-Mel-2 cells): 0.45%
% AnnV+/PI− LR (SK-Mel-2 cells): 4.74%
% AnnV−/PI+ UL (SK-Mel-2 cells): 0.36%
effect on growth of all antigen positive hematopoietic cell lines (in words) [1]: no effect on growth
effect on growth of all the melanoma cell lines tested (in words) (Melanoma cell lines): no effect on growth
internalization (in words) (CG56972-expressing cells): internalized
surface staining above control mAb background (CG56972; SF-268, CR011 10 μg/mL): around 1.5 fold
surface staining above isotype control mAb background (CG56972; SF-539, CR011 10 μg/mL): at least 1.5 fold
cell surface staining (in words) (CG56972; SK-MEL-2): strong cell surface staining
surface staining above isotype control mAb background (CG56972; SNB-78, CR011 10 μg/mL): at least 1.5 fold
surface staining above isotype control mAb background (CG56972; U-118-MG, CR011 10 μg/mL): at least 1.5 fold
surface staining above isotype control mAb background (CG56972; XF-498, CR011 10 μg/mL): at least 1.5 fold

— patent US20130244255A1, “ANTIBODIES DIRECTED TO GPNMB AND USES THEREOF” (priority 2006, published 2013)
